In patent US7427599B2, “Biologically active peptide comprising Tyrosyl-seryl-valine(YSV)” (CMS Peptides Patent Holding Company Limited, priority 2003, dated 2008):
Marks after values point to notes of the source that are not given here. Peptide text beside a SMILES is read from it.

Key:
melanoma B16 = test: Growth of C57BL/6 mice-transplanted melanoma B16; assay type: in vivo; conditions: for The Inhibition rate (%) / Tumor weight: 20 consecutive days; for Tumor weight: saline 2.64 ± 0.68
Protocol: B16 cells were maintained in RPMI-1640 medium with 10% FBS at 37° C., 5% CO2. Mouse B16 melanoma culture at log phase was adjusted to 2.5×10^6/ml with Hank's solution. 0.2 ml of this was subcutaneously injected to the right axilla of healthy C57 BL/6 mice to form the melanoma mice model. […] From the next day after the tumor implantation, the general conditions of the mice and the growth of the tumor were observed daily. On the next day after the last test substance administration, the tumors were extirpated and the weights of tumor were measured. […] The results were presented as arithmetic mean ±SD. Statistical analysis was performed using the ANOVA test of the SPSS software.

human leukemia K562 = test: Growth of nude mice-transplanted human leukemia K562; assay type: in vivo, nude mice (BALB/C (nu/nu))
Protocol: K-562 cells were maintained in RPMI-1640 medium with 10% FBS at 37° C., 5% CO2.
K562 cells at log phase were adjusted to 1.6×10^8/ml with RPMI-1640. 0.1 ml of this was subcutaneously injected to the right flank of the healthy nude mice to form the leukemia mice model.
The mice bearing human leukemia K562 cells were randomized into groups of: saline control (0.2 ml/day), and YSV (160 μg/kg/day). The test substance was dissolved in 0.2 ml saline and administration of the test substance by intraperitoneal injection was started on the next day after the K562 inoculation, once per day for 30 consecutive days.
The general conditions of the mice was examined daily and the tumor size was measured in every 3-4 days. Tumor volume (mm^3) V=(⅙)πXYZ where X, Y, and Z were the diameters of the tumor on the three planes.
On the next day after the last test substance administration, the tumors were excised, the weight of tumor was recorded and the tumor volume was measured. Tumor growth inhibition index (%)=(mean tumor weight of control group—mean tumor weight of treatment group)/mean tumor weight of control group×100)
All the data were shown as arithmetic mean ±SD. The data were analyzed using the ANOVA test of the SPSS software. P<0.05 was accepted as having statistical significance.

[1] = system: Human cervical carcinoma Hela cells; test: Inhibition of growth of human cervical carcinoma Hela cells in vitro (MTT); assay type: cell-based; conditions: for % inhibition / OD570 nm: 48 hours; for OD570 nm: MTT, negative control 0.24 ± 0.01
Protocol: Human cervical carcinoma Hela cells at logarithmic growth phase were detached by incubating for 2 to 3 minutes with PBS containing 0.05% trypsin and 0.02% EDTA. The cells were examined by inverted phase contrast microscopy. The supernatant was removed after cytoplasm pyknosis and dilatation of cell compartment were observed. A few milliliters of RPMI-1640 medium with 10% FBS were added to terminate the digestion. The cells were harvested by gently blowing with a pipette. The cells were collected by centrifugation at 150 g for 10 minutes, and washed twice by cold Hank's solution with re-suspension and centrifugation. The cell pellets were re-suspended in RPMI-1640 medium with 10% FBS and adjusted to density of 5×10^4/ml. The treated cells were placed onto a 96 wells cell culture plate, 100 μl/well. The cells were incubated for 24 hours at 37° C., 5% CO2 for re-activation and attachment.
The experiment included two testing groups with different concentrations of YSV in culture medium, and a negative control with culture medium only. The final concentrations of YSV were 10 μg/ml and 5 μg/ml. Each group contained five parallel wells. 100 μl/well testing solution was added to the treated cells. The cells were incubated for 48 hours at 37° C., 5% CO2.
The cells were pelleted by centrifugation at 150 g for 10 minutes. The supernatant was discarded and 100 μl/well MTT of 0.5 mg/ml in RPMI-1640 was added to the cell pellets and the cells were re-suspended by shaking for 2 minutes. Incubation was continued for 4 hours. The supernatant was discarded after centrifugation at 150 g for 10 minutes. After blotted dry by filter paper, 100 μl/well 40 mM HCl-2-propanol was added to the cell pellets and shaken for 3 minutes. OD570 nm of each well referenced at 630 nm was obtained by using ELISA reader.

[2] = system: A549 human pulmonary carcinoma; test: A549 human pulmonary carcinoma xenograft in nude mice; assay type: in vivo, BALB/c (nu/nu) athymic nude mice; conditions: for Tumor inhibition index (%) / Tumor volume (cm^3) / Tumor weight: 40 days
Protocol: Healthy BALB/c (nu/nu) athymic nude mice (SPF, 4-5 weeks old, weighting 18-22 g) were purchased from Shanghai Tumor Academe of China Medical Academy of Science. In the first experiment, female was used. In the second experiment, male was used.
Select A549 human pulmonary carcinoma xenografts of diameter longer than 1 cm with good growth on nude mice. Aseptically excise the tumor mass, cut into pieces of 2-4 mm^3 and submerged in RPMI1640. Pulmonary carcinoma nude mice model was prepared by transplanting the tumor mass hypodermally to the back of healthy nude mice near to the neck via an incision at the ventral thorax.
The nude mice bearing A549 xenografts were randomly divided into groups of: saline control (0.2 ml/day), YSV groups of different dosages, and Cy control (0.2 mg/kg/day). The test substances were dissolved in 0.2 ml saline and administered intraperitoneally to the mice starting from the day after the transplantation, once per day for 40 consecutive days.
The general condition of the mice was observed daily. The mice were weighed every 3-4 days and the volume of the tumor was measured:
V=(⅙)πXYZ, where X, Y, and Z were the diameters of the tumor on the 3 planes.
The day after the last injection, the tumors were excised, weighted, and the volume measured. The tumors were examined for signs of necrosis. Tumor inhibition index=(average tumor weight of saline group−average tumor weight of test group)/average tumor weight of saline group×100%)
Statistical analysis was performed with SPSS software using one-way ANOVA analysis.

[3] = suitable dosage, p<0.05 vs saline

CC(C)[C@H](NC(=O)[C@H](CO)NC(=O)[C@@H](N)Cc1ccc(O)cc1)C(=O)O [YSV, L-Tyrosyl-L-seryl-L-valine] (H-Tyr-Ser-Val-OH)
The Inhibition rate (%) (melanoma B16; 320 μg/kg/day intraperitoneal): 39.6%
Tumor weight (melanoma B16; 320 μg/kg/day intraperitoneal): 1.60 ± 1.21 g
The Inhibition rate (%) (melanoma B16; 640 μg/kg/day intraperitoneal): 44.6%
Tumor weight (melanoma B16; 640 μg/kg/day intraperitoneal): 1.47 ± 0.92 g
inhibition of growth of B16 melanoma in C57BL/6 mice (conclusion) (melanoma B16; [3]): able to inhibit the growth of B16 melanoma in C57BL/6 mice
Inhibition index (%) (human leukemia K562; 160 μg/kg/day intraperitoneal, 30 consecutive days, from tumor weight vs saline): 37.9%
Tumor weight (human leukemia K562; 160 μg/kg/day intraperitoneal, 30 consecutive days, saline 4.75 ± 2.21): 2.95 ± 1.58 g
Tumor volume (cm3) (human leukemia K562; 160 μg/kg/day intraperitoneal, 30 consecutive days, saline 5.08 ± 2.15): 3.15 ± 1.74 cm3
inhibition of growth of nude mice-transplanted K562 (conclusion) (human leukemia K562; [3]): able to inhibit the growth of nude mice-transplanted significantly human leukemia K562
inhibition of growth of Hela cells in vitro (conclusion) ([1]; 5 μg/ml to 10 μg/ml, p<0.05): able to inhibit the growth of human cervical carcinoma Hela cells in vitro
% inhibition ([1]; 5 μg/ml): 18.4%
OD570 nm ([1]; 5 μg/ml): 0.22 ± 0.00
% inhibition ([1]; 10 μg/ml): 19.6%
OD570 nm ([1]; 10 μg/ml): 0.22 ± 0.01
Tumor inhibition index (%) ([2]; experiment 1, female nude mice, 160 μg/kg/day i.p.): 32.8%
Tumor volume (cm^3) ([2]; experiment 1, female nude mice, 160 μg/kg/day i.p., saline 1.87 ± 1.10): 0.92 ± 0.79* cm^3
Tumor weight ([2]; experiment 1, female nude mice, 160 μg/kg/day i.p., saline 2.49 ± 1.02): 1.67 ± 0.97 g
Tumor inhibition index (%) ([2]; experiment 1, female nude mice, 320 μg/kg/day i.p.): 32.2%
Tumor volume (cm^3) ([2]; experiment 1, female nude mice, 320 μg/kg/day i.p., saline 1.87 ± 1.10): 0.84 ± 0.45* cm^3
Tumor weight ([2]; experiment 1, female nude mice, 320 μg/kg/day i.p., saline 2.49 ± 1.02): 1.69 ± 0.70 g
Tumor inhibition index (%) ([2]; experiment 1, female nude mice, 640 μg/kg/day i.p.): 37.4%
Tumor volume (cm^3) ([2]; experiment 1, female nude mice, 640 μg/kg/day i.p., saline 1.87 ± 1.10): 1.17 ± 0.84 cm^3
Tumor weight ([2]; experiment 1, female nude mice, 640 μg/kg/day i.p., saline 2.49 ± 1.02): 1.56 ± 1.08 g
Tumor inhibition index (%) ([2]; experiment 2, male nude mice, 160 μg/kg/day i.p.): 50.8%
Tumor volume (cm^3) ([2]; experiment 2, male nude mice, 160 μg/kg/day i.p., saline 1.34 ± 0.69): 0.78 ± 0.41 cm^3
Tumor weight ([2]; experiment 2, male nude mice, 160 μg/kg/day i.p., saline 1.51 ± 0.79): 0.74 ± 0.31 g
inhibition of growth of A549 xenograft in nude mice (conclusion) ([2]; suitable dosages, p<0.05 vs saline): able to inhibit the growth of nude mice-transplanted A549 human pulmonary carcinoma xenograft
